Several values for one entry are separate records, joined by “and”; a condition that tells them apart may be missing. Identical values can stand only once. Entries after “also recorded” stand apart in the source; their conditions may differ. Like-named read-outs stand apart in the source and are kept apart here.
Experiments:
[1] = test system: Chinese hamster ovary (CHO) cells; assay: In vitro chemotherapeutic activity, colony forming assay, CHO cells; assay type: cell-based; settings: at the 50% survival level; 37° C. for 24 hours
Protocol: (§1) 4.1. In vitro chemotherapeutic activity. Chinese hamster ovary (CHO) and human colon carcinoma (HCT-116) cells were treated with different concentrations of taxol, taxoltere metro, or taxoltere p-nip at 37° C. for 24 hours. Cell survival was evaluated by the colony forming assay.

[2] = test system: human colon carcinoma (HCT-116) cells; assay: In vitro chemotherapeutic activity, colony forming assay, HCT-116 cells; assay type: cell-based; settings: at the 1% survival level; 37° C. for 24 hours
Protocol: as §1

[3] = test system: CHO cells; assay: In vitro chemotherapeutic radiosensitization, CHO cells; assay type: cell-based, Chinese hamster; settings: for sensitizer enhancement ratio (SER): irradiated after two hours incubation; for radiosensitization of CHO cells (in words): different radiation doses
[4] = test system: HCT-116 cells; assay: In vitro chemotherapeutic radiosensitization, HCT-116 cells; assay type: cell-based, human; settings: for sensitizer enhancement ratio (SER): irradiated after two hours incubation; for radiosensitization of HCT-116 cells (in words): different radiation doses
[5] = test system: mouse mammary adenocarcinoma (MTG-B); assay: In vivo chemotherapeutic activity in MTG-B tumor bearing mice; parameters: species or system C3H/Hej mice
[6] = test system: MTG-B tumor; assay type: in vivo, C3H/Hej mice
[7] = test system: MTG-B mammary tumors; parameters: species or system mice; settings: mouse, in vivo, ip
[8] = test system: C3H/HeJ mice; assay: In vivo drug toxicity (acute toxicity); settings: for LD50/5: C3H/HeJ mice
[9] = test system: C3H/HeJ mice; settings: mouse, in vivo
[10] = In vivo drug toxicity (acute toxicity); settings: C3H/HeJ, mouse, in vivo, ip

Molecule | times more effective than taxol in killing CHO cells [1] | times more effective than taxol in killing HCT-116 cells [2] | radiosensitization of CHO cells (in words) [3] | radiosensitization of HCT-116 cells (in words) [4] | increase of survival time / life span ([5]; mouse, in vivo) [%] | survival time ([5]; mouse, in vivo) [days] | times more effective than taxol under equitoxic conditions ([5]; mouse, in vivo) [times] | tumor doubling times (in words) ([5]; mouse, in vivo) | tumor doubling time (TDT) ([6]; mouse, in vivo, ip) | LD50/5 ([8]; i.p.) [mg/kg] | also measured
N-debenzoyl-N-(t-butylcarbamoyl)-3′-desphenyl-3′-(4-nitrophenyl) taxol [taxoltere p-nip] | about 45 times | about 30 times | strongly radiosensitize | strongly radiosensitize | 1015 | 145 | 33 | even further extended; also recorded: again greatly extended | 36.5 days and 65 days | 79.13 | sensitizer enhancement ratio (SER) ([3]; concentration not given): 1.6; sensitizer enhancement ratio (SER) ([4]; concentration not given): 1.5; tumor doubling time ([6]; mouse, in vivo, iv): 52 days; cure rate [7]: 40% and 75%; LD50/5 ([8]; i.v.): 134.16 mg/kg
CC(=O)O[C@H]1C(=O)[C@@]2(C)[C@H]([C@H](OC(=O)c3ccccc3)[C@]3(O)C[C@H](OC(=O)[C@H](O)[C@@H](NC(=O)c4ccccc4)c4ccccc4)C(C)=C1C3(C)C)[C@]1(OC(C)=O)CO[C@@H]1C[C@@H]2O [taxol, reference compound] | – | – | does not | does not | – | – | – | – | – | – | survival time ([5]; 40% of the LD50/5 dose, MTG-B tumor-bearing mice, control 13 days): 17 days; increase of survival time / life span ([5]; 40% of the LD50/5 dose, versus control 13 days): 31%; tumor doubling time (TDT) ([6]; single dose i.p., 40% of LD50/5, drug alone, control 3.5 days): 14.5 days; tumor doubling time (TDT) ([6]; single dose i.p., 40% of LD50/5, plus 22 Gy Xray one day later, 22 Gy alone 8.5 days): 19.5 days; Severe toxic symptoms (constriction of pupils, rough hair) [9]: observed; LD50 at 5 days [10]: 141 mg/kg
N-debenzoyl-N-(t-butylcarbamoyl)-7-(metronidazoleoxycarbonyl) taxol [taxoltere metro] | about 15 times | about 10 times | strongly radiosensitize | strongly radiosensitize | 123 | 29 | 4 | again greatly extended | 20.5 days and 29.5 days | 249.67 | sensitizer enhancement ratio (SER) ([3]; 100 nM): 2.3; sensitizer enhancement ratio (SER) ([4]; 10 nM): 1.2; Severe toxic symptoms (constriction of pupils, rough hair) ([8]; 24 hours after drug administration, high drug dose levels): not
